Read-outs that look alike come from different tables or passages of the source.
Experiments:
[1] = molecular target: T1, ETA receptors (rat aortic rings) (Rattus norvegicus, UniProt P26684); test: Inhibition of endothelin-1-induced contraction on isolated rat aortic rings
T1 construct: The thoracic aorta or trachea were excised, dissected and cut in 3–5 mm rings; from tissue; host or cells: thoracic aorta rings of adult Wistar rats, endothelium removed
T1 sequence (P26684 21-426): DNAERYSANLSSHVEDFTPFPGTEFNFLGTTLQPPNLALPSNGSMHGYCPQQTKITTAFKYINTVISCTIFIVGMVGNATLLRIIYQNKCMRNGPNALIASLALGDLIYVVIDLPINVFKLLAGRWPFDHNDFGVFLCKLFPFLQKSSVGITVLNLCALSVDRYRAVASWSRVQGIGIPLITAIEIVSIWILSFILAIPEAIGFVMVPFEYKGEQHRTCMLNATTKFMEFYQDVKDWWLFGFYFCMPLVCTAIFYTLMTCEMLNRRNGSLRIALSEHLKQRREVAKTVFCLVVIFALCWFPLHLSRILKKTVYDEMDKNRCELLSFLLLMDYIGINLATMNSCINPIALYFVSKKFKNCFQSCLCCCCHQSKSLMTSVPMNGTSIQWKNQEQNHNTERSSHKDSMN

[2] = molecular target: T2, human recombinant ETA receptor (Homo sapiens, UniProt P25101); test: Inhibition of [125I]ET-1 binding to membranes from CHO cells carrying human ETA receptors
T2 construct: expressed in transfected cells; host or cells: CHO cells (microsomal membranes)
T2 sequence (P25101 21-427): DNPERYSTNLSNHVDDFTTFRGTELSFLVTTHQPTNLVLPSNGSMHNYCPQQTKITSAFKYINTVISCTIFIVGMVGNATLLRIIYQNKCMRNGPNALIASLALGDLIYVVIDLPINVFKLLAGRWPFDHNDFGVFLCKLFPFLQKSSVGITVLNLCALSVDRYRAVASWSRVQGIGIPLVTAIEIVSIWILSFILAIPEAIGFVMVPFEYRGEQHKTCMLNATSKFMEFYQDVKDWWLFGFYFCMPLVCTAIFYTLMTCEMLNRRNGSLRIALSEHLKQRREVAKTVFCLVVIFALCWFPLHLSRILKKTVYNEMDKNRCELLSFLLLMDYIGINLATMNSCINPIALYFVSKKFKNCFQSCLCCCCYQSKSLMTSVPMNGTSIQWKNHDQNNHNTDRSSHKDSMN

[3] = molecular target: T3, human recombinant ETB receptor (Homo sapiens, UniProt P24530); test: Inhibition of [125I]ET-1 binding to membranes from CHO cells carrying human ETB receptors
T3 construct: expressed in transfected cells; host or cells: CHO cells (microsomal membranes)
T3 sequence (P24530 27-442): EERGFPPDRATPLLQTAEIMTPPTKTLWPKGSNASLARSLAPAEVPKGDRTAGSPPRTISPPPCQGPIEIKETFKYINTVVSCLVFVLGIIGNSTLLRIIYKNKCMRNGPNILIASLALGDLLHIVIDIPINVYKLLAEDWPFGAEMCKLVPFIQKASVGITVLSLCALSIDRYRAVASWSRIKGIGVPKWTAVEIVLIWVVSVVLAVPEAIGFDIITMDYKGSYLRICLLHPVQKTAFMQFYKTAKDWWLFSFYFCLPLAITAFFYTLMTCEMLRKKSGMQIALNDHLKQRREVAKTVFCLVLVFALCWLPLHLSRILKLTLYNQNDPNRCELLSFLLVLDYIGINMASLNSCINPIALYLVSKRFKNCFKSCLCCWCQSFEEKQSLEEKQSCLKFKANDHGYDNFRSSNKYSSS

[4] = molecular target: T4, ETB receptors (rat tracheal rings) (Rattus norvegicus, UniProt P21451); test: Inhibition of sarafotoxin S6c-induced contraction on isolated rat tracheal rings; conditions: rat tracheal rings, contraction induced by sarafotoxin S6c, 10 min incubation; read-out: pA2 value ETB (converted)
T4 construct: The thoracic aorta or trachea were excised, dissected and cut in 3–5 mm rings; from tissue; host or cells: tracheal rings of adult Wistar rats, epithelium removed
T4 sequence (P21451 27-442): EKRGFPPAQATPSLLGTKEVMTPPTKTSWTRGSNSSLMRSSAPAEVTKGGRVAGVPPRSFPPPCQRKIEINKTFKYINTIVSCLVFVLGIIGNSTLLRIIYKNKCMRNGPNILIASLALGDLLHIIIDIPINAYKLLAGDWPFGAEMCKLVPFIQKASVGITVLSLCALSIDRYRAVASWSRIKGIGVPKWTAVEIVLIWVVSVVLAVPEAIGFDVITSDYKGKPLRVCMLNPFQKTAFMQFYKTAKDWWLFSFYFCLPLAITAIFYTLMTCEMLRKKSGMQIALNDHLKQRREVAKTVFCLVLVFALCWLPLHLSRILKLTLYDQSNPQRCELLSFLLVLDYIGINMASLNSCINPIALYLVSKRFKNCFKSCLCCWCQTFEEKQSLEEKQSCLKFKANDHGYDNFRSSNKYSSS

[5] = read-out: pA2 value ETA (converted)

SMILES	Kb [1, 5] [µM]	IC50 [2] [µM]	IC50 [3] [µM]	Kb [1] [µM]	Kb [4] [µM]
COc1ccccc1Oc1c(NS(=O)(=O)Nc2ccc(C(C)C)cc2)nc(-c2ccncc2)nc1OCCOc1ncc(Br)cn1 [Example 5, 4-i-propyl-phenyl sulfamic acid-[6-[2-(5-bromo-pyrimidin-2-yloxy)-ethoxy]-5-(o-methoxy-phenoxy)-2-(4-pyridyl)-pyrimidin-4-yl]-amide]	0.224	0.028	1.28		
O=S(=O)(NCc1cccs1)Nc1ncnc(OCCOc2ncc(Br)cn2)c1-c1ccc(Cl)cc1 [Example 20]		0.0049	1.72	0.0617	
COc1ccccc1Oc1c(NS(=O)(=O)NCc2ccccc2)nc(-c2ncccn2)nc1OCCOC(=O)Nc1ccccn1 [Example 41]		0.0032	0.0416	0.00427	
Cc1ccc(-c2c(NS(=O)(=O)NCC3CC3)ncnc2OCCOc2ncc(Br)cn2)cc1 [Example 119]		0.0042	> 1	0.0417	
COc1ccccc1Oc1c(NS(=O)(=O)NCC2CCCCC2)nc(-c2ncccn2)nc1OCCOc1ncc(Br)cn1 [Example 133]		0.0017	0.212	0.0191	
COc1ccc(CNS(=O)(=O)Nc2nc(-c3ccncc3)nc(OC)c2Oc2ccccc2OC)cc1 [Example 161]		0.0062	> 1	0.513	
COc1ccccc1Oc1c(NS(=O)(=O)NCCc2ccccc2)nc(-c2ccncc2)nc1OCCOc1ncc(Br)cn1 [Example 182]		0.029	1.87		
COc1ccccc1Oc1c(NS(=O)(=O)NCc2ccccc2)nc(SC)nc1OCCO [Example 203, benzylsulfamic acid [6-(2-hydroxy-ethoxy)-5-(2-methoxy-phenoxy)-2-methylsulfanyl-pyrimidin-4-yl]-amide]	0.0204				1.45
COc1ccccc1Oc1c(NS(=O)(=O)NCc2ccccc2)nc(S(C)(=O)=O)nc1OCCO [Example 204, Benzylsulfamic acid [6-(2-hydroxy-ethoxy)-2-methanesulfonyl-5-(2-methoxy-phenoxy)-pyrimidin-4-yl]-amide]		0.39	1.05		
COc1ccccc1Oc1c(NS(=O)(=O)NCc2ccccc2)nc(N2CCOCC2)nc1OCCO [Example 205, benzylsulfamic acid [6-(2-hydroxy-ethoxy)-5-(2-methoxy-phenoxy)-2-morpholin-4-yl-pyrimidin-4-yl]-amide]		0.135	0.623		
C=CCOc1nc(-c2ccnc(-c3nnn[nH]3)c2)nc(NS(=O)(=O)NCc2ccccc2)c1Oc1ccccc1OC [Example 209, Benzylsulfamic acid [6-allyloxy-5-(2-methoxy-phenoxy)-2-[2-(1H-tetrazol-5-yl)-pyridin-4-yl]-pyrimidin-4-yl]-amide]		0.733	> 1		
C#CCOc1nc(-c2ccnc(-c3nnn[nH]3)c2)nc(NS(=O)(=O)NCc2ccccc2)c1Oc1ccccc1OC [Example 210, Benzylsulfamic acid [5-(2-methoxy-phenoxy)-6-prop-2-ynyloxy-2-[2-(1H-tetrazol-5-yl)-pyridin-4-yl]-pyrimidin-4-yl]-amide]		0.023	0.936		
COc1ccc(Cl)c(Oc2c(NS(=O)(=O)NCc3ccccc3)ncnc2OCCO)c1 [Example 211, Benzylsulfamic acid [5-(2-chloro-5-methoxy-phenoxy)-6-(2-hydroxy-ethoxy)-pyrimidin-4-yl]-amide]		0.29	0.722		

The remaining molecules from weak to strong by IC50 [2], led by results:

Kb [1, 5] [µM]	IC50 [2] [µM]	IC50 [3] [µM]	SMILES	Kb [1] [µM]	Kb [4] [µM]
	0.023	0.31	COc1cnc(OCCOc2nc(-c3ncccn3)nc(NS(=O)(=O)NC3CC3)c2Oc2ccccc2OC)nc1 [Example 200]		
	0.017	> 1	COc1ccccc1Oc1c(NS(=O)(=O)NCc2ccccc2)nc(-c2ccnc(-c3nnn[nH]3)c2)nc1OC [Example 207, benzylsulfamic acid [6-methoxy-5-(2-methoxy-phenoxy)-2-[2-(1H-tetrazol-5-yl)-pyridin-4-yl]-pyrimidin-4-yl]-amide]		
	0.017	0.342	COc1ccccc1Oc1c(NS(=O)(=O)NCc2ccccc2)nc(-c2ccnc(-c3nnn[nH]3)c2)nc1OCCO [Example 208, Benzylsulfamic acid [6-(2-hydroxy-ethoxy)-5-(2-methoxy-phenoxy)-2-[2-(1H-tetrazol-5-yl)-pyridin-4-yl]-pyrimidin-4-yl]-amide]		
0.0148	0.016		COc1ccccc1Oc1c(NS(=O)(=O)NCc2ccccc2)nc(-c2ncccn2)nc1OCCOc1ncc(Br)cn1 [Example 37]		
0.282	0.0134	0.306	COc1ccc(CNS(=O)(=O)Nc2nc(-c3ncccn3)nc(OC)c2Oc2ccccc2OC)cc1 [Example 51]		
	0.012	0.205	COc1ccccc1Oc1c(NS(=O)(=O)NC2CC2)nc(-c2ncccn2)nc1OCCOc1ncc(Br)cn1 [Example 199]		
	0.011	0.29	COc1cnc(OCCOc2nc(-c3ncccn3)nc(NS(=O)(=O)N(C)Cc3ccccc3)c2Oc2ccccc2OC)nc1 [Example 188]		
	0.0096	0.351	COc1ccccc1Oc1c(NS(=O)(=O)NC2CC2)nc(-c2ccncc2)nc1OCCOc1ncc(Br)cn1 [Example 202]		
	0.0095	> 1	COc1cnc(OCCOc2ncnc(NS(=O)(=O)N(C)Cc3ccccc3)c2-c2ccc(Cl)cc2)nc1 [Example 194]		
0.00398	0.0056		O=S(=O)(NCc1ccccc1)Nc1ncnc(OCCOc2ncc(Br)cn2)c1-c1ccc(Cl)cc1 [Example 14, benzyl sulfamic acid-[6-[2-(5-bromo-pyrimidin-2-yloxy)-ethoxy]-5-(4-chlorophenyl)-4-pyrimidinyl]-amide]		
	0.0036	> 1	CN(Cc1ccccc1)S(=O)(=O)Nc1ncnc(OCCOc2ncc(Br)cn2)c1-c1ccc(Cl)cc1 [Example 193]		
0.00178	0.0035	0.864	Cc1ccc(-c2c(NS(=O)(=O)NCc3ccccc3)nc(-c3ccncc3)nc2OCCOc2ncc(Br)cn2)cc1 [Example 32]		
	0.00132	0.347	COc1ccc(Cl)c(Oc2c(NS(=O)(=O)NCc3ccccc3)ncnc2OCCOc2ncc(SC)cn2)c1 [Example 213, Benzylsulfamic acid [6-[2-(5-methylsulfanyl-pyrimidin-2-yloxy)-ethoxy]-5-(2-chloro-5-methoxy-phenoxy)-pyrimidin-4-yl]-amide]		
	0.00116	0.418	CSc1cnc(OCCOc2ncnc(NS(=O)(=O)NC3CC3)c2-c2ccc(Br)cc2)nc1 [Example 197]		
0.00363	0.00076		O=S(=O)(NCc1ccccc1)Nc1ncnc(OCCOc2ncc(Br)cn2)c1-c1ccc(Br)cc1 [Example 100]		
	0.00076	0.241	COc1ccc(Cl)c(Oc2c(NS(=O)(=O)NCc3ccccc3)ncnc2OCCOc2ncc(S(C)(=O)=O)cn2)c1 [Example 214, Benzylsulfamic acid [5-(2-chloro-5-methoxy-phenoxy)-6-[2-(5-methanesulfonyl-pyrimidin-2-yloxy)-ethoxy]-pyrimidin-4-yl]-amide]		
